Test results: BigSolDB 2.1

CC(C)[C@H](NC(=O)OCC1c2ccccc2-c2ccccc21)C(=O)O
solubility (mole fraction)
Settings	283.15 K	288.15 K	293.15 K	298.15 K	303.15 K	308.15 K	313.15 K	318.15 K	323.15 K
in 2-butanone	0.0403	0.0448	0.0509	0.057	0.0632	0.0699	0.0793	0.0902	0.102
in acetone	0.0449	0.0504	0.0568	0.0627	0.0707	0.0792	0.0915	0.104	0.121
in acetonitrile	0.00264	0.00327	0.00399	0.00477	0.00577	0.00703	0.00867	0.0105	0.0128
in dimethyl carbonate	0.0073	0.00766	0.00901	0.0108	0.0131	0.016	0.0196	0.0235	0.0294
in ethanol	0.0177	0.0243	0.0261	0.0312	0.0373	0.0462	0.057	0.0714	0.0877
in isobutanol	0.00967	0.0112	0.0127	0.0152	0.0186	0.0236	0.0296	0.0366	0.0541
in isopentanol	0.0103	0.0129	0.0159	0.0192	0.0231	0.0286	0.0351	0.0429	0.0552
in isopropanol	0.0105	0.0133	0.0161	0.0204	0.0271	0.0352	0.0448	0.0533	0.071
in methanol	0.0238	0.0259	0.0321	0.0396	0.0468	0.0571	0.0694	0.0846	0.0985
in n-butanol	0.0155	0.019	0.0216	0.0244	0.0287	0.0351	0.0434	0.0536	0.0728
in n-butyl acetate	0.0143	0.0162	0.0184	0.0209	0.0234	0.0273	0.0314	0.0362	0.0417
in n-pentanol	0.016	0.0172	0.0199	0.0233	0.0281	0.0344	0.0417	0.0495	0.0582
in n-propanol	0.0141	0.0169	0.0199	0.0227	0.0319	0.0398	0.0481	0.057	0.0742
in sec-butanol	0.016	0.0174	0.0222	0.0275	0.0349	0.0435	0.0549	0.0653	0.0801
